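Briefly, cells in 96-well plates were exposed to five compound concentrations for 48 h, and endpoints were estimated by linear interpolation. TGI is the concentration that stops growth completely.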
Tests used:
Test in all cases: growth of human tumour cells (NCI), 48 h
786-0 renal = system: 786-0 renal
A498 renal = system: A498 renal
A549 NSCLC = system: A549 NSCLC
ACHN renal = system: ACHN renal
BT-549 breast = system: BT-549 breast
CAKI-1 renal = system: CAKI-1 renal
CCRF-CEM leukemia = system: CCRF-CEM leukemia
COLO 205 colon = system: COLO 205 colon
DU-145 prostate = system: DU-145 prostate
EKVX NSCLC = system: EKVX NSCLC
HCC-2998 colon = system: HCC-2998 colon
HCT-116 colon = system: HCT-116 colon
HCT-15 colon = system: HCT-15 colon
HOP-62 NSCLC = system: HOP-62 NSCLC
HOP-92 NSCLC = system: HOP-92 NSCLC
HS 578T breast = system: HS 578T breast
HT29 colon = system: HT29 colon
K-562 leukemia = system: K-562 leukemia
KM12 colon = system: KM12 colon
LOX IMVI melanoma = system: LOX IMVI melanoma
M14 melanoma = system: M14 melanoma
MALME-3M melanoma = system: MALME-3M melanoma
MCF7 breast = system: MCF7 breast
MDA-MB-231 breast = system: MDA-MB-231 breast
MDA-MB-435 = system: MDA-MB-435
MDA-N = system: MDA-N
MOLT-4 leukemia = system: MOLT-4 leukemia
NCI-H226 lung = system: NCI-H226 lung
NCI-H23 lung = system: NCI-H23 lung
NCI-H460 lung = system: NCI-H460 lung
NCI-H522 lung = system: NCI-H522 lung
NCI/ADR-RES ovarian = system: NCI/ADR-RES ovarian
OVCAR-3 ovarian = system: OVCAR-3 ovarian
OVCAR-4 ovarian = system: OVCAR-4 ovarian
OVCAR-5 ovarian = system: OVCAR-5 ovarian
OVCAR-8 ovarian = system: OVCAR-8 ovarian
PC-3 prostate = system: PC-3 prostate
RPMI-8226 leukemia = system: RPMI-8226 leukemia
RXF 393 renal = system: RXF 393 renal
SF-268 CNS = system: SF-268 CNS
SF-295 CNS = system: SF-295 CNS
SF-539 CNS = system: SF-539 CNS
SK-MEL-2 melanoma = system: SK-MEL-2 melanoma
SK-MEL-28 melanoma = system: SK-MEL-28 melanoma
SK-MEL-5 melanoma = system: SK-MEL-5 melanoma
SK-OV-3 ovarian = system: SK-OV-3 ovarian
SN12C renal = system: SN12C renal
SNB-19 CNS = system: SNB-19 CNS
SNB-75 CNS = system: SNB-75 CNS
SR leukemia = system: SR leukemia
SW-620 colon = system: SW-620 colon
T-47D breast = system: T-47D breast
TK-10 renal = system: TK-10 renal
U251 CNS = system: U251 CNS
UACC-257 melanoma = system: UACC-257 melanoma
UACC-62 melanoma = system: UACC-62 melanoma
UO-31 renal = system: UO-31 renal
HL-60(TB) leukemia = system: HL-60(TB) leukemia
IGROV1 ovarian = system: IGROV1 ovarian

## c1ccc(Nc2nn3c(CCCCCCCCc4nnc5sc(Nc6ccccc6)nn45)nnc3s2)cc1
786-0 renal
  TGI: 79.5 µM
A498 renal
  TGI: > 100 µM
A549 NSCLC
  TGI: > 100 µM
ACHN renal
  TGI: > 100 µM
BT-549 breast
  TGI: > 100 µM
CAKI-1 renal
  TGI: > 100 µM
CCRF-CEM leukemia
  TGI: 63.9 µM
COLO 205 colon
  TGI: 42.8 µM
DU-145 prostate
  TGI: > 100 µM
EKVX NSCLC
  TGI: > 100 µM
HCC-2998 colon
  TGI: > 100 µM
HCT-116 colon
  TGI: > 100 µM
HCT-15 colon
  TGI: > 100 µM
HOP-62 NSCLC
  TGI: > 100 µM
HOP-92 NSCLC
  TGI: > 100 µM
HS 578T breast
  TGI: > 100 µM
HT29 colon
  TGI: 77.5 µM
K-562 leukemia
  TGI: 37.6 µM
KM12 colon
  TGI: > 100 µM
LOX IMVI melanoma
  TGI: > 100 µM
M14 melanoma
  TGI: 35.2 µM
MALME-3M melanoma
  TGI: > 100 µM
MCF7 breast
  TGI: 85.7 µM
MDA-MB-231 breast
  TGI: > 100 µM
MDA-MB-435
  TGI: 84 µM
MDA-N
  TGI: 46.6 µM
MOLT-4 leukemia
  TGI: 41.7 µM
NCI-H226 lung
  TGI: > 100 µM
NCI-H23 lung
  TGI: > 100 µM
NCI-H460 lung
  TGI: > 100 µM
NCI-H522 lung
  TGI: 81.2 µM
NCI/ADR-RES ovarian
  TGI: > 100 µM
OVCAR-3 ovarian
  TGI: > 100 µM
OVCAR-4 ovarian
  TGI: > 100 µM
OVCAR-5 ovarian
  TGI: > 100 µM
OVCAR-8 ovarian
  TGI: > 100 µM
PC-3 prostate
  TGI: > 100 µM
RPMI-8226 leukemia
  TGI: > 100 µM
RXF 393 renal
  TGI: > 100 µM
SF-268 CNS
  TGI: > 100 µM
SF-295 CNS
  TGI: 71.8 µM
SF-539 CNS
  TGI: > 100 µM
SK-MEL-2 melanoma
  TGI: > 100 µM
SK-MEL-28 melanoma
  TGI: > 100 µM
SK-MEL-5 melanoma
  TGI: 24.6 µM
SK-OV-3 ovarian
  TGI: > 100 µM
SN12C renal
  TGI: > 100 µM
SNB-19 CNS
  TGI: > 100 µM
SNB-75 CNS
  TGI: 75.5 µM
SR leukemia
  TGI: 38.3 µM
SW-620 colon
  TGI: > 100 µM
T-47D breast
  TGI: 67.1 µM
TK-10 renal
  TGI: > 100 µM
U251 CNS
  TGI: > 100 µM
UACC-257 melanoma
  TGI: > 100 µM
UACC-62 melanoma
  TGI: > 100 µM
UO-31 renal
  TGI: 69.9 µM

## O=c1[nH]nc(Cc2ccccc2)n1/N=C/c1cccnc1
786-0 renal
  TGI: > 100 µM
A498 renal
  TGI: > 100 µM
A549 NSCLC
  TGI: > 100 µM
ACHN renal
  TGI: > 100 µM
BT-549 breast
  TGI: > 100 µM
CAKI-1 renal
  TGI: > 100 µM
CCRF-CEM leukemia
  TGI: > 100 µM
COLO 205 colon
  TGI: > 100 µM
DU-145 prostate
  TGI: > 100 µM
EKVX NSCLC
  TGI: > 100 µM
HCC-2998 colon
  TGI: > 100 µM
HCT-116 colon
  TGI: > 100 µM
HCT-15 colon
  TGI: > 100 µM
HL-60(TB) leukemia
  TGI: > 100 µM
HOP-62 NSCLC
  TGI: > 100 µM
HOP-92 NSCLC
  TGI: > 100 µM
HS 578T breast
  TGI: > 100 µM
HT29 colon
  TGI: > 100 µM
IGROV1 ovarian
  TGI: > 100 µM
K-562 leukemia
  TGI: > 100 µM
KM12 colon
  TGI: > 100 µM
LOX IMVI melanoma
  TGI: > 100 µM
M14 melanoma
  TGI: > 100 µM
MALME-3M melanoma
  TGI: > 100 µM
MCF7 breast
  TGI: > 100 µM
MDA-MB-231 breast
  TGI: > 100 µM
MDA-MB-435
  TGI: > 100 µM
MDA-N
  TGI: > 100 µM
MOLT-4 leukemia
  TGI: > 100 µM
NCI-H226 lung
  TGI: > 100 µM
NCI-H23 lung
  TGI: > 100 µM
NCI-H460 lung
  TGI: > 100 µM
NCI-H522 lung
  TGI: > 100 µM
NCI/ADR-RES ovarian
  TGI: > 100 µM
OVCAR-3 ovarian
  TGI: > 100 µM
OVCAR-4 ovarian
  TGI: > 100 µM
OVCAR-5 ovarian
  TGI: > 100 µM
OVCAR-8 ovarian
  TGI: > 100 µM
PC-3 prostate
  TGI: > 100 µM
RPMI-8226 leukemia
  TGI: > 100 µM
RXF 393 renal
  TGI: > 100 µM
SF-268 CNS
  TGI: > 100 µM
SF-295 CNS
  TGI: > 100 µM
SF-539 CNS
  TGI: > 100 µM
SK-MEL-28 melanoma
  TGI: > 100 µM
SK-MEL-5 melanoma
  TGI: > 100 µM
SN12C renal
  TGI: > 100 µM
SNB-19 CNS
  TGI: > 100 µM
SNB-75 CNS
  TGI: > 100 µM
SR leukemia
  TGI: > 100 µM
SW-620 colon
  TGI: > 100 µM
T-47D breast
  TGI: > 100 µM
TK-10 renal
  TGI: > 100 µM
U251 CNS
  TGI: > 100 µM
UACC-257 melanoma
  TGI: > 100 µM
UO-31 renal
  TGI: > 100 µM

— PubChem BioAssay (NCI)
